Tests used:
switchgrass calluses [1] = assay: Sensitivity of switchgrass calluses to drugs: plant (shoot) regeneration on PVS medium; format: cell-based; settings: switchgrass callus on PVS medium
Description: (§1) Skins of mature seeds of switchgrass variety “Alamo” were removed by 60% (v/v) sulfate treatment, and a fungicide for seeds was used for sterilization. […] The seeds were cultured for a few months in the dark at 28° C. Then, grown calluses were classified as independent strains for each derived seed. Strains in which a compact callus expected to have a regeneration ability was grown were selected and cultured.
(§2) In order to develop a new screening method that is appropriate for plastid transformation, the calluses of the regeneration strains prepared in the above <1> were used to examine sensitivity of wild type plant cells to various drugs.

switchgrass calluses [2] = assay: Sensitivity of switchgrass calluses to drugs: callus growth on PVC medium; format: cell-based
Description: as §1, §2

[3] = tested on: wild type of rice variety Nipponbare; settings: MS-NK medium containing sodium nitrite 400 mg/L
Description: PSR1 genes were introduced into plastids of rice variety Nipponbare and rice variety Koshihikari and transformants were screened using sodium nitrite. Specifically, it was performed as follows. An MS-NK medium (Nishimura et al., Nature Protocols, 2006, Vol. 1, p. 2796-2802) used as a regeneration medium contained nitrate nitrogen, originally.

[4] = tested on: wild type switchgrass calluses; settings: 28° C.
Description: In the sodium nitrite screening, in order to determine a screening concentration more effectively, wild type switchgrasses were cultured under sodium nitrite conditions of different concentrations, and the sensitivity of wild type cells to sodium nitrite was examined.
Specifically, a mass of 14 switchgrass calluses remained for each plate on PVC media and PVS media containing sodium nitrite having a concentration of 0, 0.25, 0.5, 0.6, 0.7, 0.8, 0.9, or 1.0 g/L, and three plates of each of which were prepared for each concentration condition. The PVC media were cultured in the dark at 28° C. and the PVS media were cultured under light at 28° C. for 4 weeks. After culture, the number of grown calluses was measured in the PVC media, and the number of calluses from which plants were regenerated was measured in the PVS media. The growth rate and the regeneration rate were calculated.

[5] = PVC media, dark, 4 weeks (FIG. 2A)
[6] = PVS media, light, 4 weeks (FIG. 2B)

Compound	Shoot regeneration: supression concentration (switchgrass calluses [1])	Callus growth: supression concentration (switchgrass calluses [2])	other results
C[n+]1ccc(-c2cc[n+](C)cc2)cc1 [Methylviologen]	(>1.0 μM)	(>1.0 μM)	
[H]/N=C(/N)N[C@H]1[C@H](O)[C@@H](O)[C@H](O[C@@H]2O[C@@H](C)[C@](O)(C=O)[C@H]2O[C@@H]2O[C@@H](CO)[C@H](O)[C@@H](O)[C@@H]2NC)[C@@H](N/C(N)=N\[H])[C@@H]1O [Streptomycin]	(>400 mg/L)		
NC[C@H]1O[C@H](O[C@H]2[C@H](O)[C@@H](O[C@H]3O[C@H](CO)[C@@H](O)[C@H](N)[C@H]3O)[C@H](N)C[C@@H]2N)[C@H](O)[C@@H](O)[C@@H]1O [Kanamycin]	(>100 mg/L)	(>200 mg/L)	
CC(Oc1ccc(Oc2ncc(C(F)(F)F)cc2Cl)cc1)C(=O)O (centres unmarked) [Haloxyfop]		(>1.0 μM)	
CCCC(=NOCC)C1=C(O)CC(C2CCCSC2)CC1=O (centres unmarked) [Cycloxydim]	(>0.1 μM)	(>1.5 μM)	
CN[C@@H]1[C@@H](O)[C@@H](O[C@@H]2[C@@H](O)[C@H](O[C@H]3O[C@H]([C@@H](C)O)[C@@H](O)[C@H](O)[C@H]3N)[C@@H](N)C[C@H]2N)OC[C@]1(C)O [G418]	(>25 mg/L)	(>25 mg/L)	
O=C(O)CNCP(=O)(O)O [Glyphosate]	(>0.1 mM)	(>0.1 mM)	
CCc1cc(C)cc(CC)c1-c1c(OC(=O)C(C)(C)C)n2n(c1=O)CCOCC2 [Pinoxaden]		(>1.0 μM)	
O=NO [Sodium nitrite]	(>800 mg/L)	(>800 mg/L)	Regeneration ability of wild type rice [3]: had a regeneration ability; Concentration at which callus growth was completely suppressed [4, 5]: ≥ 0.9 g/L; Concentration at which callus growth was sharply reduced [4, 5]: 0.7 g/L; Concentration at which plant regeneration was completely suppressed [4, 6]: 1.0 g/L; Concentration at which plant regeneration was sharply reduced [4, 6]: 0.8 g/L
C[C@@H](Oc1ccc(Oc2ncc(Cl)cc2F)cc1)C(=O)O [Clodinafop]		(>1.0 μM)	
Bleocin	(>10 mg/L)	(>25 mg/L)	
CCCCOC(=O)C(C)Oc1ccc(Oc2ccc(C(F)(F)F)cn2)cc1 (centres unmarked) [Fluazifop-butyl]	(>0.1 μM)	(>1.0 μM)	
CN(C)[C@@H]1C(O)=C(C(N)=O)C(=O)[C@@]2(O)C(O)=C3C(=O)c4c(O)cccc4[C@@](C)(O)[C@H]3C[C@@H]12 [Tetracycline]	(>60 mg/L)	(>40 mg/L)	
O=C(N[C@H](CO)[C@H](O)c1ccc([N+](=O)[O-])cc1)C(Cl)Cl [Cloramphenicol]	(>15 mg/L)	(>30 mg/L)	
